From patent US20240174603A1 (Rappta Therapeutics Oy, priority 2021, published 2024)

tested on: LNCaP cells; assay: LNCaP cell viability assay (MTS); assay type: cell-based; conditions: Homo sapiens, LNCaP cell line, 48 hours
Summary of the method: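 GI50 derived by nonlinear four-parameter curve fitting (bottom fixed at zero) of MTS viability data. Prostate LNCaP cells seeded at 5000/well were given compound doses from 1 to 80 µM one day after plating and assayed after 48 h of exposure.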

Structure (SMILES)	GI50 [µM]
CN(C)CC(NS(=O)(=O)c1ccc(OC(F)(F)F)cc1)c1ccc(C(F)(F)F)cc1 (centres unmarked) [Compound 219, N-(2-(dimethylamino)-1-(4-(trifluoromethyl)phenyl)ethyl)-4-(trifluoromethoxy)benzenesulfonamide]	43.6

same assay, conditions: Homo sapiens, LNCaP, 48 h, LNCaP cell line

GI50 [µM]	Structure (SMILES)
57.3	CN(C)CC(NS(=O)(=O)C1CCCCC1)c1ccc(Cl)c(Cl)c1 (centres unmarked) [Compound 135, N-(1-(3,4-dichlorophenyl)-2-(dimethylamino)ethyl)cyclohexanesulfonamide]
29	CN(C)CC1(CNS(=O)(=O)c2ccc(OC(F)(F)F)cc2)CC1 [Compound 98, N-((1-((dimethylamino)methyl)cyclopropyl)methyl)-4-(trifluoromethoxy)benzenesulfonamide]
38.3	CCOc1ccc(Cl)cc1CCNS(=O)(=O)c1ccc(OC(F)(F)F)cc1 [Compound 29, N-(5-chloro-2-ethoxyphenethyl)-4-(trifluoromethoxy)benzenesulfonamide]
16.5	CN(C)CC(NS(=O)(=O)c1ccc(OC(F)(F)F)c(Cl)c1)c1cccc(C(F)(F)F)c1 (centres unmarked) [Compound 191, 3-chloro-N-(2-(dimethylamino)-1-(3-(trifluoromethyl)phenyl)ethyl)-4-(trifluoromethoxy)benzenesulfonamide]
40.5	Cc1cccc(S(=O)(=O)NC(CN(C)C)c2ccc(Cl)c(Cl)c2)c1 (centres unmarked) [Compound 132, N-(1-(3,4-dichlorophenyl)-2-(dimethylamino)ethyl)-3-methylbenzenesulfonamide]
15.9	CC(C)(C)OC(=O)NCC(NS(=O)(=O)c1ccc(OC(F)(F)F)cc1)c1ccc(Cl)c(Cl)c1 (centres unmarked) [Compound 224, tert-butyl (2-(3,4-dichlorophenyl)-2-((4-(trifluoromethoxy)phenyl)sulfonamido)ethyl)carbamate]
38.1	O=S(=O)(NC(CC(F)(F)F)c1ccccc1)c1ccc(OC(F)(F)F)cc1 (centres unmarked) [Compound 8, N-(3,3,3-trifluoro-1-phenylpropyl)-4-(trifluoromethoxy)benzenesulfonamide]
63.8	COc1ccc(S(=O)(=O)N2CCC(CNS(=O)(=O)c3ccc(OC(F)(F)F)cc3)CC2)cc1OC [Compound 1, N-((1-((3,4-dimethoxyphenyl)sulfonyl)piperidin-4-yl)methyl)-4-(trifluoromethoxy)benzenesulfonamide]
71	O=S(=O)(NCCC(O)(C(F)(F)F)C(F)(F)F)c1ccc(OC(F)(F)F)cc1 [Compound 50, N-(4,4,4-trifluoro-3-hydroxy-3-(trifluoromethyl)butyl)-4-(trifluoromethoxy)benzenesulfonamide]
75.6	CCOC(=O)CC(NS(=O)(=O)c1ccc(OC(F)(F)F)cc1)c1ccc(OCC)cc1 (centres unmarked) [Compound 25]
49.7	Cn1ccc(S(=O)(=O)NCC(NS(=O)(=O)c2ccc(OC(F)(F)F)cc2)c2ccccc2)c1 (centres unmarked) [Compound 124, 1-methyl-N-(2-phenyl-2-((4-(trifluoromethoxy)phenyl)sulfonamido)ethyl)-1H-pyrrole-3-sulfonamide]
25.2	CC(C)c1ccc(S(=O)(=O)NC(CN(C)C)c2ccc(Cl)c(Cl)c2)cc1 (centres unmarked) [Compound 213, N-(1-(3,4-dichlorophenyl)-2-(dimethylamino)ethyl)-4-isopropylbenzenesulfonamide]
34	COc1ccc(CNCC(NS(=O)(=O)c2ccc(OC(F)(F)F)cc2)c2ccc(Cl)c(Cl)c2)cc1 (centres unmarked) [Compound 256, N-(1-(3,4-dichlorophenyl)-2-((4-methoxybenzyl)amino)ethyl)-4-(trifluoromethoxy)benzenesulfonamide]
12.7	CN(C)CC(NS(=O)(=O)c1ccc(OC(F)(F)F)cc1)c1ccc(Cl)c(Cl)c1 (single isomer, unassigned) [Compound 148, N-(1-(3,4-dichlorophenyl)-2-(dimethylamino)ethyl)-4-(trifluoromethoxy)benzenesulfonamide]
56.1	O=S(=O)(NCC1(c2ccc(Cl)cc2)CCCC1)c1ccc(OC(F)(F)F)cc1 [Compound 244, N-((1-(4-chlorophenyl)cyclopentyl)methyl)-4-(trifluoromethoxy)benzenesulfonamide]
42.4	CCCOC1CCN(CC(NS(=O)(=O)c2ccc(OC(F)(F)F)cc2)c2ccccc2)CC1 (centres unmarked) [Compound 118, N-(1-phenyl-2-(4-propoxypiperidin-1-yl)ethyl)-4-(trifluoromethoxy)benzenesulfonamide]
39.6	CN(C)CC(c1ccc(Cl)c(Cl)c1)N(C)S(=O)(=O)c1ccc(OC(F)(F)F)cc1 (centres unmarked) [Compound 250, N-(1-(3,4-dichlorophenyl)-2-(dimethylamino)ethyl)-N-methyl-4-(trifluoromethoxy)benzenesulfonamide]
45.7	CN(C)CC(NS(=O)(=O)c1ccc(OC(F)F)cc1)c1ccc(Cl)c(Cl)c1 (centres unmarked) [Compound 153, N-(1-(3,4-dichlorophenyl)-2-(dimethylamino)ethyl)-4-(difluoromethoxy)benzenesulfonamide]

GI50 [µM]	Structure (SMILES)
11.1	CN(C)CC(NS(=O)(=O)c1ccc(OC2CCCCC2)cc1)c1ccc(Cl)c(Cl)c1 (centres unmarked) [Compound 209]
40.3	O=S(=O)(NC[C@H](c1ccc(F)cc1)N1CCNCC1)c1ccc(OC(F)(F)F)cc1 [Compound 265, (S)—N-(2-(4-fluorophenyl)-2-(piperazin-1-yl)ethyl)-4-(trifluoromethoxy)benzenesulfonamide]
49	CCOC(=O)CC(NS(=O)(=O)c1ccc(OC(F)(F)F)cc1)c1cccc(Br)c1 (centres unmarked) [Compound 46, Ethyl 3-(3-bromophenyl)-3-((4-(trifluoromethoxy)phenyl)sulfonamido)propanoate]
10.2	CN(C)CC(NS(=O)(=O)c1ccc(Oc2ccc(C(F)(F)F)cc2)cc1)c1ccc(Cl)c(Cl)c1 (centres unmarked) [Compound 139, N-(1-(3,4-dichlorophenyl)-2-(dimethylamino)ethyl)-4-(4-(trifluoromethyl)phenoxy)benzenesulfonamide]
41	O=S(=O)(NCCNS(=O)(=O)c1ccc(Cl)cc1F)c1ccc(OC(F)(F)F)cc1 [Compound 97, 4-chloro-2-fluoro-N-(2-((4-(trifluoromethoxy)phenyl)sulfonamido)ethyl)benzenesulfonamide]
49	Cc1ccc(C(NS(=O)(=O)c2ccc(OC(F)(F)F)cc2)C(C)S(C)(=O)=O)cc1 (centres unmarked) [Compound 104, N-(2-(methylsulfonyl)-1-(p-tolyl)propyl)-4-(trifluoromethoxy)benzenesulfonamide]
57.8	CCOC(=O)C(Cc1cc(Cl)sc1Cl)NS(=O)(=O)c1ccc(OC(F)(F)F)cc1 (centres unmarked) [Compound 42, Ethyl 3-(2,5-dichlorothiophen-3-yl)-2-((4-(trifluoromethoxy)phenyl)sulfonamido)propanoate]
37	CC(NS(=O)(=O)c1ccc(OC(F)(F)F)cc1)C(NC(=O)OC(C)(C)C)c1ccccc1 (centres unmarked) [Compound 105, Tert-butyl (1-phenyl-2-((4-(trifluoromethoxy)phenyl)sulfonamido)propyl)carbamate]
43.1	CN(C)CC(NS(=O)(=O)c1ccc(OC(F)(F)F)cc1)c1ccc(Cl)cc1 (single isomer, unassigned) [Compound 179, N-(1-(4-chlorophenyl)-2-(dimethylamino)ethyl)-4-(trifluoromethoxy)benzenesulfonamide]
42.5	O=S(=O)(NCC1(c2ccc(Cl)cc2)CCC1)c1ccc(OC(F)(F)F)cc1 [Compound 229, N-((1-(4-chlorophenyl)cyclobutyl)methyl)-4-(trifluoromethoxy)benzenesulfonamide]
66	COCCC1(CNS(=O)(=O)c2ccc(OC(F)(F)F)cc2)CCCCC1 [Compound 53, N-((1-(2-methoxyethyl)cyclohexyl)methyl)-4-(trifluoromethoxy)benzenesulfonamide]
21.3	CN(C)CC(NS(=O)(=O)c1ccc(OC(F)(F)F)cc1N)c1ccc(Cl)c(Cl)c1 (centres unmarked) [Compound 155, 2-amino-N-(1-(3,4-dichlorophenyl)-2-(dimethylamino)ethyl)-4-(trifluoromethoxy)benzenesulfonamide]
50.9	COC(c1ccccc1Cl)C(C)NS(=O)(=O)c1ccc(OC(F)(F)F)cc1 (centres unmarked) [Compound 20, N-(1-(2-chlorophenyl)-1-methoxypropan-2-yl)-4-(trifluoromethoxy)benzenesulfonamide]
11.2	CN(C)CC(NS(=O)(=O)c1ccc(-c2ccccc2)cc1)c1ccc(Cl)c(Cl)c1 (centres unmarked) [Compound 143, N-(1-(3,4-dichlorophenyl)-2-(dimethylamino)ethyl)-[1,1′-biphenyl]-4-sulfonamide]
28	O=S(=O)(NCC1CN(Cc2ccccc2)CC12CCC2)c1ccc(OC(F)(F)F)cc1 (centres unmarked) [Compound 91, N-((6-benzyl-6-azaspiro[3.4]octan-8-yl)methyl)-4-(trifluoromethoxy)benzenesulfonamide]
10.5	O=S(=O)(NC(CN1CC2CC1CN2)c1ccc(Cl)c(Cl)c1)c1ccc(OC(F)(F)F)cc1 (single isomer, unassigned) [Compound 261a, N-(2-(2,5-diazabicyclo[2.2.1]heptan-2-yl)-1-(3,4-dichlorophenyl)ethyl)-4-(trifluoromethoxy)benzenesulfonamide]
23	O=S(=O)(NCC1(c2ccc(Br)cc2Cl)CC1)c1ccc(OC(F)(F)F)cc1 [Compound 80, N-((1-(4-bromo-2-chlorophenyl)cyclopropyl)methyl)-4-(trifluoromethoxy)benzenesulfonamide]

same assay, conditions: LNCaP cell line, 48 hours

GI50 [µM]	Structure (SMILES)
17.8	CCCc1ccc(S(=O)(=O)NC(CN(C)C)c2ccc(Cl)c(Cl)c2)cc1 (single isomer, unassigned) [Compound 200, N-(1-(3,4-dichlorophenyl)-2-(dimethylamino)ethyl)-4-propylbenzenesulfonamide]
12.5	CN(C)CC(NS(=O)(=O)c1cccc(-c2ccccc2)c1)c1ccc(Cl)c(Cl)c1 (single isomer, unassigned) [Compound 198, N-(1-(3,4-dichlorophenyl)-2-(dimethylamino)ethyl)-[1,1′-biphenyl]-3-sulfonamide]
